Measurements as given in PubChem BioAssay AID330 (DTP/NCI, 2004).
Values joined by “and” are separate entries in the source; they are usually repeats but may differ in a detail not shown here. Identical values can stand only once. Toxic doses and inconclusive results are not listed. How the source made its calls: active means survival T/C of 150% or more; inactive means T/C below 125% in these data.

Tested on: P388 leukemia ip, CD2F1 mice, survival T/C
Experiment: NCI In Vivo Anticancer Drug Screen. Data for tumor model P388 Leukemia (intraperitoneal) in CD2F1 (CDF1) mice
Details: endpoint: median survival time, higher = longer survival
Procedure, shortened: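 Mice carrying the transplanted tumor received test compound or vehicle. Survival was recorded in each group, and the value is the treated-group measurement divided by that of the vehicle-treated control group.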

[1] = dose: 50.0 mg/kg/injection, schedule: Q01DX009 (ip), vehicle: Klucel (hydroxypropylcellulose) (HPC)
[2] = dose: 100.0 mg/kg/injection, schedule: Q01DX009 (ip), vehicle: Klucel (hydroxypropylcellulose) (HPC)
[3] = dose: 200.0 mg/kg/injection, schedule: Q01DX009 (ip), vehicle: Klucel (hydroxypropylcellulose) (HPC)
[4] = dose: 50.0 mg/kg/injection, schedule: Q01DX009 (ip), vehicle: saline with Tween-80
[5] = dose: 100.0 mg/kg/injection, schedule: Q01DX009 (ip), vehicle: saline with Tween-80
[6] = dose: 200.0 mg/kg/injection, schedule: Q01DX009 (ip), vehicle: saline with Tween-80
[7] = dose: 50.0 mg/kg/injection, schedule: Q01DX005 (ip), vehicle: saline with Tween-80
[8] = dose: 100.0 mg/kg/injection, schedule: Q01DX005 (ip), vehicle: saline with Tween-80
[9] = dose: 200.0 mg/kg/injection, schedule: Q01DX005 (ip), vehicle: saline with Tween-80
[10] = dose: 60.0 mg/kg/injection, schedule: Q01DX005 (ip), vehicle: saline with Tween-80
[11] = dose: 25.0 mg/kg/injection, schedule: Q01DX009 (ip), vehicle: saline with Tween-80
[12] = dose: 25.0 mg/kg/injection, schedule: Q01DX009 (ip), vehicle: saline
[13] = dose: 100.0 mg/kg/injection, schedule: Q04DX003 (ip), vehicle: saline with Tween-80
[14] = dose: 200.0 mg/kg/injection, schedule: Q04DX003 (ip), vehicle: saline with Tween-80
[15] = dose: 400.0 mg/kg/injection, schedule: Q04DX003 (ip), vehicle: saline with Tween-80
[16] = dose: 6.25 mg/kg/injection, schedule: Q01DX009 (ip), vehicle: saline
[17] = dose: 12.5 mg/kg/injection, schedule: Q01DX009 (ip), vehicle: saline
[18] = dose: 50.0 mg/kg/injection, schedule: Q01DX005 (ip), vehicle: Klucel (hydroxypropylcellulose) (HPC)
[19] = dose: 100.0 mg/kg/injection, schedule: Q01DX005 (ip), vehicle: Klucel (hydroxypropylcellulose) (HPC)

Measured: T/C

COc1ccc(OC)c(NC(=O)Nc2nc(C)cs2)c1
inactive: [1] 92 % of control | [2] 93 % of control | [3] 90 % of control

CCC1S(=O)(=O)OCCOS1(=O)=O
inactive: dose: 7.5 mg/kg/injection, schedule: Q01DX005 (ip), vehicle: Klucel (hydroxypropylcellulose) (HPC) 106 % of control | dose: 15.0 mg/kg/injection, schedule: Q01DX005 (ip), vehicle: Klucel (hydroxypropylcellulose) (HPC) 106 % of control and 107 % of control and 116 % of control | dose: 30.0 mg/kg/injection, schedule: Q01DX005 (ip), vehicle: Klucel (hydroxypropylcellulose) (HPC) 109 % of control and 112 % of control and 120 % of control

O=C1C(c2ccccc2)=S=C2Sc3ccccc3N12
inactive: [4] 105 % of control | [5] 102 % of control | [6] 95 % of control

O=C(O)c1cn(C2CCCCC2)c(=O)[nH]c1=O
inactive: [7] 99 % of control | [8] 92 % of control | [9] 92 % of control

S=c1n(-c2ccc(Cl)cc2)c2/c(=N\Nc3cc(Cl)ccc3Cl)c(n1-c1ccccn1)=NCCN=2
inactive: dose: 15.0 mg/kg/injection, schedule: Q01DX005 (ip), vehicle: saline with Tween-80 98 % of control | dose: 30.0 mg/kg/injection, schedule: Q01DX005 (ip), vehicle: saline with Tween-80 112 % of control | [10] 99 % of control and 112 % of control

O=C(Nc1ccccc1O)C1C(=O)C(=O)N(c2ccccc2O)C1=O (configuration not stated)
inactive: [11] 97 % of control | [1] 101 % of control and 105 % of control and 107 % of control | [4] 105 % of control | [2] 99 % of control and 101 % of control (2×) | [5] 97 % of control | [3] 106 % of control | [6] 102 % of control

CC(=O)OC12CCCCC(CCCC1)O2
inactive: dose: 100.0 mg/kg/injection, schedule: Q04DX003 (ip), vehicle: Klucel (hydroxypropylcellulose) (HPC) 100 % of control | dose: 200.0 mg/kg/injection, schedule: Q04DX003 (ip), vehicle: Klucel (hydroxypropylcellulose) (HPC) 99 % of control | dose: 400.0 mg/kg/injection, schedule: Q04DX003 (ip), vehicle: Klucel (hydroxypropylcellulose) (HPC) 100 % of control

Cc1ccc(-c2cn3nc(-c4ccc5c(c4)OCO5)sc3n2)cc1
inactive: [10] 92 % of control | dose: 120.0 mg/kg/injection, schedule: Q01DX005 (ip), vehicle: saline with Tween-80 99 % of control and 89 % of control | dose: 240.0 mg/kg/injection, schedule: Q01DX005 (ip), vehicle: saline with Tween-80 87 % of control

Clc1ccc(Cl)c(N=NNc2cc(Cl)ccc2Cl)c1
inactive: dose: 12.5 mg/kg/injection, schedule: Q01DX009 (ip), vehicle: saline with Tween-80 96 % of control | [11] 99 % of control | [12] 98 % of control | [4] 97 % of control | dose: 50.0 mg/kg/injection, schedule: Q01DX009 (ip), vehicle: saline 94 % of control | [5] 98 % of control | dose: 100.0 mg/kg/injection, schedule: Q01DX009 (ip), vehicle: saline 92 % of control | [13] 104 % of control | [6] 88 % of control | dose: 200.0 mg/kg/injection, schedule: Q01DX009 (ip), vehicle: saline 92 % of control | [14] 104 % of control | [15] 95 % of control

CCC(C)(C)C(=O)Nc1cccc(OC(=O)NC)c1
inactive: [11] 100 % of control | [4] 92 % of control | [5] 101 % of control

NC(=O)c1nnn(Cc2ccccc2)c1N
inactive: [11] 119 % of control | [4] 102 % of control | [5] 109 % of control | [6] 106 % of control | dose: 400.0 mg/kg/injection, schedule: Q01DX009 (ip), vehicle: saline with Tween-80 110 % of control

N#Cc1c2ccc(N)cc2nc2cc(N)ccc12
inactive: dose: 60.0 mg/kg/injection, schedule: Q01DX005 (ip), vehicle: Klucel (hydroxypropylcellulose) (HPC) 100 % of control | dose: 120.0 mg/kg/injection, schedule: Q01DX005 (ip), vehicle: Klucel (hydroxypropylcellulose) (HPC) 105 % of control | dose: 240.0 mg/kg/injection, schedule: Q01DX005 (ip), vehicle: Klucel (hydroxypropylcellulose) (HPC) 118 % of control

O=C1c2ccccc2C2CNC1(O)c1ccccc12 (configuration not stated)
inactive: [7] 97 % of control | [8] 97 % of control | [9] 102 % of control

COc1ccc(CCN(Cc2ccc([N+](=O)[O-])cc2)C(=O)c2ccccc2)c(C=O)c1OC
inactive: dose: 100.0 mg/kg/injection, schedule: Q01DX001 (ip), vehicle: saline + alcohol 95 % of control | dose: 200.0 mg/kg/injection, schedule: Q01DX001 (ip), vehicle: saline + alcohol 97 % of control | dose: 400.0 mg/kg/injection, schedule: Q01DX001 (ip), vehicle: saline + alcohol 89 % of control

CN1CC[C@@H](c2ccccc2)[C@@H](O)C1
inactive: [7] 97 % of control | [8] 100 % of control

CC(C)C(Br)C(=O)NCC(=O)O (configuration not stated)
inactive: [13] 100 % of control | [14] 95 % of control | [15] 100 % of control

CCCCCC1(CCCCCCCC(O)CC(=O)OCC)OCCO1 (configuration not stated)
inactive: dose: 100.0 mg/kg/injection, schedule: Q01DX001 (ip), vehicle: Klucel (hydroxypropylcellulose) (HPC) 100 % of control | dose: 200.0 mg/kg/injection, schedule: Q01DX001 (ip), vehicle: Klucel (hydroxypropylcellulose) (HPC) 108 % of control | dose: 400.0 mg/kg/injection, schedule: Q01DX001 (ip), vehicle: Klucel (hydroxypropylcellulose) (HPC) 100 % of control

O=NN(C(=O)NCCN1CCOCC1)C1CCCCC1
inactive: dose: 25.0 mg/kg/injection, schedule: Q01DX001 (ip), vehicle: water 115 % of control | dose: 50.0 mg/kg/injection, schedule: Q01DX001 (ip), vehicle: water 100 % of control | dose: 100.0 mg/kg/injection, schedule: Q01DX001 (ip), vehicle: water 103 % of control | dose: 200.0 mg/kg/injection, schedule: Q01DX001 (ip), vehicle: water 111 % of control | dose: 400.0 mg/kg/injection, schedule: Q01DX001 (ip), vehicle: water 117 % of control

OC(CN1CCCCC1)c1ccc(/C=C/c2ccc(Cl)cc2)cc1 (configuration not stated)
inactive: [16] 100 % of control | [17] 95 % of control | [12] 96 % of control

CC(=O)O[C@H]1CC[C@]2(C)C34OC3C[C@]3(C)[C@@H](C(C)=O)CC[C@H]3[C@]43C=C[C@@]2(C1)C1C(=O)OC(=O)C13 (some centres not stated)
inactive: [18] 112 % of control | [19] 106 % of control

CCCCNc1c(C(=O)OCC)cnc2c1cnn2CC
inactive: dose: 100.0 mg/kg/injection, schedule: Q04DX002 (ip), vehicle: saline with Tween-80 102 % of control | dose: 200.0 mg/kg/injection, schedule: Q04DX002 (ip), vehicle: saline with Tween-80 102 % of control | dose: 400.0 mg/kg/injection, schedule: Q04DX002 (ip), vehicle: saline with Tween-80 90 % of control

[CH3][Sn]([Cl])([Cl])[c]1ccccc1
inactive: dose: 1.56 mg/kg/injection, schedule: Q04DX003 (ip), vehicle: saline 114 % of control | dose: 3.12 mg/kg/injection, schedule: Q04DX003 (ip), vehicle: saline 109 % of control | dose: 6.25 mg/kg/injection, schedule: Q04DX003 (ip), vehicle: saline 106 % of control and 117 % of control

O=S(=O)(O)C1CC2C(c3ccccc31)N1ON2O1 (configuration not stated)
inactive: [7] 102 % of control | [8] 100 % of control | [9] 100 % of control

COc1cc2c(cc1OC)CN1CCc3cc(OC)c(OC)cc3[C@@H]1C2
inactive: dose: 12.5 mg/kg/injection, schedule: Q01DX005 (ip), vehicle: saline with Tween-80 100 % of control | dose: 25.0 mg/kg/injection, schedule: Q01DX005 (ip), vehicle: saline with Tween-80 102 % of control | [7] 104 % of control and 98 % of control

COc1ccc(/C=N/NC(=O)CNC(=O)Nc2n[nH]c(=S)s2)cc1
inactive: [18] 100 % of control | [19] 104 % of control | dose: 200.0 mg/kg/injection, schedule: Q01DX005 (ip), vehicle: Klucel (hydroxypropylcellulose) (HPC) 100 % of control

O=C1C=CC(=O)C(CC2CCCC2C2=CC(=O)C=CC2=O)=C1 (configuration not stated)
inactive: dose: 6.25 mg/kg/injection, schedule: Q04DX002 (ip), vehicle: saline with Tween-80 109 % of control | dose: 12.5 mg/kg/injection, schedule: Q04DX002 (ip), vehicle: saline with Tween-80 101 % of control | dose: 25.0 mg/kg/injection, schedule: Q04DX002 (ip), vehicle: saline with Tween-80 99 % of control and 109 % of control

C[N+](C)(C)CCC(=O)c1ccco1
inactive: [16] 117 % of control | [17] 117 % of control | [11] 111 % of control | [12] 106 % of control
